The values that follow come from PubChem BioAssay AID1648 (Sanford-Burnham Center for Chemical Genomics, 2009).

Each structure is given as a SMILES string. Activity calls are given as the source filed them. No rule for the calls is given here.

The target in the assay is Serine/threonine-protein kinase mTOR (Homo sapiens) (UniProt P42345). In words: mTOR FRB domain ligand binding – biophysical, NMR (AID 1648). To be noted: NMR binding to FRB domain, chemical shift.

For orientation: Kd means a measure of binding affinity in units of concentration.

Serine/threonine-protein kinase mTOR (Homo sapiens), sequence (P42345 2015-2114): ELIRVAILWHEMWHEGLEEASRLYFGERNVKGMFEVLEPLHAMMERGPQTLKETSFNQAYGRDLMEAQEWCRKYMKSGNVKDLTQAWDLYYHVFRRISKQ

With `C[C@@H]1C(=O)OC2[C@H](O)C34[C@@H]5OC(=O)[C@@]3(O[C@@H]3OC(=O)[C@H](O)[C@@]34[C@H](C(C)(C)C)[C@H]5O)[C@]21O` (stereo partly specified), the Kd is > 4 mM (inactive).
With `CCn1ccc(C(=O)Nc2nccs2)n1`, the Kd is > 4 mM (inactive).
For `Cc1sc2nc(NCCO)[nH]c(=O)c2c1C` the value was > 4 mM (inactive); for `c1ccn(Cc2ccncc2)c1`, > 4 mM (inactive); for `Nc1cc(=O)[nH]c(SCC(=O)NC2CCCCC2)n1`, > 4 mM (inactive).
As to `Cc1nc(-c2ccccc2)sc1CO`, the Kd is > 4 mM (inactive).
Take `CC(C)(O)P(C)(=O)c1ccccc1` (stereo unspecified): the Kd was > 4 mM (inactive).
In the case of `CC(=O)c1c(C)nc2ccccc2c1N` it was > 4 mM (inactive).
On to `COc1ccc(C)cc1S(=O)(=O)NC1CCCC1`, for which the Kd was > 4 mM (inactive).
In the case of `COc1ccc(-c2cc(=O)c3c(O)cc(O[C@@H]4O[C@H](CO[C@H]5O[C@H](C)[C@@H](O)[C@H](O)[C@@H]5O)[C@@H](O)[C@H](O)[C@H]4O)cc3o2)cc1O` it was > 4 mM (inactive).
As to `O=C(Nc1nnc(-c2ccncc2)o1)c1cccs1`, the Kd is > 4 mM (inactive).
`NS(=O)(=O)c1ccc2c3c(cccc13)C(=O)N2`: the Kd was > 4 mM (inactive).
In the case of `C[C@]12CCC3C(CC[C@H]4C[C@@H](O)CC[C@]34C)C1CCC2=O` (stereo partly specified) it was > 4 mM (inactive).
In the case of `C(=N\n1cnnc1)/c1cccs1` it was > 4 mM (inactive); in that of `O=C(Nc1ccccc1)NC1CCS(=O)(=O)C1` (stereo unspecified), > 4 mM (inactive).
In the case of `O=C1c2cccc3cc(S(=O)(=O)O)cc(c23)C(=O)N1O` it was > 4 mM (inactive); in that of `O=C(NCc1cccs1)c1nc2ncccn2n1`, > 4 mM (inactive); in that of `COC(=O)c1cc(-c2c[nH]c3ccccc23)n[nH]1`, > 4 mM (inactive).
Turning to `CC(=O)c1c(O)cc(C)n(Cc2ccccc2)c1=O`, the Kd was > 4 mM (inactive).
In the case of `Cc1cccc(N2CCN(C(=O)c3ccncc3)CC2)c1C`, the Kd is > 4 mM (inactive).
For `Cn1c(=O)n(C)c2nc([N+](=O)[O-])c(Cl)cc21`, the Kd was > 4 mM (inactive).
Turning to `Cc1cc(C)n(-c2cccc3cccnc23)n1`, the Kd was > 4 mM (inactive).
In the case of `Cc1cc(C)nc(N2CC(=O)N(C)C2=N)n1` it was > 4 mM (inactive).
For `OCc1cc2ccccc2o1` the value was > 4 mM (inactive); for `O=C(O)C(Cc1cnc[nH]1)N1C(=O)c2ccccc2C1=O` (stereo unspecified), > 4 mM (inactive); for `Nc1nc(N)nc(N2C(=O)c3ccccc3C2=O)n1`, > 4 mM (inactive).
For the compound `Cc1ccc(-c2c(C)n([O-])c(C)c(C)[n+]2=O)cc1`, the Kd is > 4 mM (inactive).
In the case of `Oc1ccc(-c2n[nH]c(=S)n2Cc2ccco2)cc1` it was > 4 mM (inactive); in that of `OCc1ccc(N2CCOCC2)cc1`, > 4 mM (inactive).
In the case of `CC(=O)c1cccc(NS(=O)(=O)N2CCCCC2)c1` it was > 4 mM (inactive).
In the case of `O=C1CSC(c2ccccc2)N1` (stereo unspecified) it was > 4 mM (inactive); in that of `COc1cc(CNC(=O)CCCC/C=C/C(C)C)ccc1O`, > 4 mM (inactive).
Turning to `Nc1ccc2nccnc2c1`, the Kd is > 4 mM (inactive).
For `CC(=O)NC12CC3CC(CC(O)(C3)C1)C2` the value was > 4 mM (inactive).
In the case of `O=C1N=c2ccccc2=C1c1[nH]c(=S)[nH]c1O` it was > 4 mM (inactive); in that of `CNC(=S)Nc1ccc(OC)cc1C`, > 4 mM (inactive); in that of `Cc1cc(=O)n2ccc(CN3CCOCC3)c(O)c2n1`, > 4 mM (inactive).
In the case of `NC(=O)Cn1nc(-c2ccco2)ccc1=O` it was > 4 mM (inactive).
For the compound `CCOC(=O)C1CCNCC1`, the Kd was > 4 mM (inactive).
For `COc1ccc(C)cc1-n1c(-c2ccncc2)n[nH]c1=S` the value was > 4 mM (inactive); for `COc1ccc(-c2coc3cc(O)ccc3c2=O)cc1`, > 4 mM (inactive).
In the case of `COc1ccc([C@H]2Oc3c(I)c(OC)cc(OC)c3C[C@@H]2O)cc1OC` it was > 4 mM (inactive); in that of `O=C(O)c1cc(O)c2c(c1)C(=O)c1cc(O)cc(O)c1C2=O`, > 4 mM (inactive).
`CC(=O)Nc1ccc(C)cc1NC(C)=O`: the Kd is > 4 mM (inactive).
For `COC1=CC(=O)C=C(OC)C1=O` the value was > 4 mM (inactive).
For `O=c1sc2ccccc2n1CN1CCOCC1` the value was > 4 mM (inactive); for `Cc1c(C)[n+]([O-])c(-c2ccc([N+](=O)[O-])cc2)n1O`, > 4 mM (inactive).
Turning to `Cc1cc2c(N)cccc2nn1`, the Kd was > 4 mM (inactive).
Regarding `Cc1cccc(N2C(=O)CCC2=O)n1`, the Kd is > 4 mM (inactive).
Turning to `O=c1cccc2n1C[C@H]1CNCC2C1`, the Kd was > 4 mM (inactive).
Consider `COCCn1c(C)cc(O)cc1=O`, for which the Kd was > 4 mM (inactive).
In the case of `O=C(O)c1cc(O)c(O)c(O)c1` it was > 4 mM (inactive); in that of `Cc1[nH]c(=O)[nH]c(=O)c1N1CCOCC1`, > 4 mM (inactive); in that of `Oc1ccc(/C=C/c2cc(O)cc(O)c2)cc1`, > 4 mM (inactive).
On to `Cc1nc2ccc(NC(=O)N3CCOCC3)cc2s1`, for which the Kd is > 4 mM (inactive).
In the case of `Cc1ccc(C(=O)CS(C)(=O)=O)cc1` it was > 4 mM (inactive); in that of `Nc1ccc(C2SCCS2)cc1`, > 4 mM (inactive); in that of `O=C(O)C1CCN(C(=O)c2cccs2)CC1`, > 4 mM (inactive).
In the case of `CC(NC(=O)C1CCCCC1)C(=O)NC1=NCCS1` (stereo unspecified) it was > 4 mM (inactive).
In the case of `O=C(O)CCC(=O)Nc1ccccc1F` it was > 4 mM (inactive); in that of `NC(=O)c1cc(Cl)c(C(N)=O)cc1Cl`, > 4 mM (inactive).
For `O=C(O)Cc1noc2ccccc12`, the Kd is > 4 mM (inactive).
For `CSc1nn(-c2ccccc2)c(N)c1C#N` the value was > 4 mM (inactive); for `O=C1CSC(=Nc2ccc(O)cc2)N1`, > 4 mM (inactive); for `Cc1nccc(-c2cccc(N)c2)n1`, > 4 mM (inactive).
In the case of `Cc1nc(N)sc1C(=O)N/N=C/c1ccncc1` it was > 4 mM (inactive).
For `CCOC(=O)c1cnc2cc(C)nn2c1C` the value was > 4 mM (inactive).
Regarding `Cn1c(=O)c2cn3ncccc3c2n(C)c1=O`, the Kd was > 4 mM (inactive).
Regarding `Cc1nnc(NCc2cccnc2)[nH]c1=O`, the Kd is > 4 mM (inactive).
In the case of `CC(C)n1c(Nn2cnnc2)nc2ccccc21`, the Kd is > 4 mM (inactive).
As for `C=CCn1c(N)c(C(=O)N2CCOCC2)sc1=S`, the Kd is > 4 mM (inactive).
In the case of `Cc1sc(N)c(C(N)=O)c1C` it was > 4 mM (inactive); in that of `COc1ccc2c(c1)=C(c1sc(N)nc1O)C(=O)N=2`, > 4 mM (inactive).
For `CC(=O)Nc1ccc2c(c1)CCC2=O` the value was > 4 mM (inactive); for `O=C(/C=C/c1ccc(O)cc1)c1ccc(O)cc1O`, > 4 mM (inactive).
For `Cc1c(/C=N\n2cnnc2)c2ccccc2n1C` the value was > 4 mM (inactive).
